Data published in patent US20170296566A9, “METHODS AND COMPOSITIONS FOR TREATING AND/OR PREVENTING MUCOSITIS” (GLYCOMIMETICS, INC., priority 2013, published 2017).

target: T1, E-selectin (Homo sapiens, UniProt P16581); assay: E-selectin competitive binding assay (inhibition of sLe^a binding to immobilized E-selectin/Ig chimera); conditions: biotinylated sLe^a polyacrylamide with streptavidin/HRP, TMB, 450 nm, read-out: IC50 (μM), E-Selectin Antagonist Activity
T1 construct: fused on or other part: Immunoglobulin (Ig) portion fused to E-selectin as a handle for immobilisation
T1 sequence (P16581 22-175 limits assumed): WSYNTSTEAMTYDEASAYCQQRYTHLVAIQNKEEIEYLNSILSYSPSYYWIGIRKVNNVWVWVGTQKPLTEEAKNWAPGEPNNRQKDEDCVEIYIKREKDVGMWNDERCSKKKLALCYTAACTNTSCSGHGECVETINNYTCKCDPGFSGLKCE
Procedure: The inhibition assay to screen for and characterize glycomimetic antagonists of E-selectin is a competitive binding assay, which allows the determination of IC50 values. E-selectin/Ig chimera was immobilized in 96 well microtiter plates by incubation at 37° C. for 2 hours. To reduce nonspecific binding, bovine serum albumin was added to each well and incubated at room temperature for 2 hours. The plate was washed and serial dilutions of the test compounds were added to the wells in the presence of conjugates of biotinylated, sLe^a polyacrylamide with streptavidin/horseradish peroxidase and incubated for 2 hours at room temperature.
To determine the amount of sLe^a bound to immobilized E-selectin after washing, the peroxidase substrate, 3,3′,5,5′ tetramethylbenzidine (TMB) was added. After 3 minutes, the enzyme reaction was stopped by the addition of H3PO4, and the absorbance of light at a wavelength of 450 nm was determined.
In addition to reporting the absolute IC50 value as measured above, relative IC50 values (rIC50) are determined by a ratio of the IC50 measured for the test compound to that of an internal control (reference) stated for each assay.

| IC50 [µM] | SMILES |
| --- | --- |
| < 4 | CCC1CC(C(=O)NCCNC(=O)Cc2cc(=O)oc3cc(O)ccc23)C[C@@H](O[C@@H]2OC(CO)[C@H](O)C(O[C@@H](CC3CCCCC3)C(=O)O)C2NC(C)=O)C1OC1O[C@@H](C)C(O)C(O)[C@@H]1O (some centres unmarked) [Compound 29] |
| < 4 | CCC1CC(C(=O)NCCNC(=O)CCOCCOCCOCCOCCOCCOCCOCCOCCOCCOCCOCCOC)CC(OC2OC(CO)C(O)C(OC(CC3CCCCC3)C(=O)N(C)C)C2NC(C)=O)C1OC1OC(C)C(O)C(O)C1O (centres unmarked) [Compound 45] |

The next lines start with the compound.

| SMILES | IC50 [µM] |
| --- | --- |
| CCC1CC(C(=O)OC)C[C@@H](O[C@@H]2O[C@@H](CO)[C@H](O)C(O[C@@H](CC3CCCCC3)C(=O)O)C2NC(C)=O)[C@@H]1OC1O[C@@H](C)[C@H](O)C(O)[C@@H]1O (some centres unmarked) [Compound 22] | < 4 |
| CCC1CC(C(=O)OC)C[C@@H](O[C@@H]2OC(CO)[C@H](O)C(O[C@@H](CC3CCCCC3)C(=O)O)C2NC(=O)C(F)(F)F)C1OC1O[C@@H](C)C(O)C(O)[C@@H]1O (some centres unmarked) [Compound 27] | < 4 |
| CCC1CC(C(=O)NCCNC(=O)c2nc(C)cs2)C[C@@H](O[C@@H]2OC(CO)[C@H](O)C(O[C@@H](CC3CCCCC3)C(=O)O)C2NC(C)=O)C1OC1O[C@@H](C)C(O)C(O)[C@@H]1O (some centres unmarked) [Compound 28] | < 4 |
